Like-named read-outs stand apart in the source and are kept apart here.

The test system of this experiment is Pityrosporum ovale. Nature of the experiment: Agar diffusion test, inhibition zones around wells on selective agar plates. It is filed as cell-based. As to conditions: for zone of inhibition at 0.5 % / zone of inhibition at 1 % / zone of inhibition at 5 % / zone of inhibition at 10 %: Malassezia furfur, 72 h, read-out: mittlerer Hemmhof-Durchmesser. How it is done:
Testlösungen: • TY-Medium 10 g Trypton + 5 g Hefeextrakt + 10 g NaCI, aufgelöst in 1000 ml H20, gepuffert auf pH 7,4 , autoklaviert. • Testverbindung 1: Hexyllaurat • Testverbindung 2: Isopropylstearat • Testverbindung 3: Caprylsäure-/Caprinsäure-Triglycerid • Testverbindung 4: Glyceryllaurat
Pityrosporum ovale von drei Patienten mit Pityrosporum-Follikulitis, Pityriasis versicolor oder seborrhoischem Ekzem wurde in einer Mischung aus 50 % TY-Medium, 30 % Olivenöl und 20 % Tween 80 suspendiert. Die drei verschiedenen Hefestämme wurden in drei parallelen Ansätzen auf einer Selektivagarplatte für pathogene Pilze (Merck AG, Darmstadt) gleichmäßig ausgespatelt. Mit Hilfe steriler Korkbohrer wurden in jede Platte mehrere kreisrunde Vertiefungen gestanzt, in die Vertiefungen mit einem Durchmesser von 5 mm wurden jeweils 25 ul der Testlösungen gegeben. Die Testlösungen stellten 0,5 %-ige, 1,0 %- ige, 2,5 %-ige, 5,0 %-ige und 10,0 %-ige Lösungen der Testsubstanzen in Ethanol dar.
Nach dreistündiger Inkubation bei 37 C wurde das verdunstete Lösungsmittel durch je 25 ul Jojobaöl ersetzt und die Platten anschließend unter Beibehaltung der Wachstumsbedingungen drei Tage inkubiert. Während dieser Zeit diffundierten die Testsubstanzen in den die Vertiefungen umgebenden Nährboden.
Antimycotisch wirksame Testverbindungen zeigten nach dreitägiger Inkubation einen deutlichen konzentrischen Hemmhof um die Vertiefungen. Die Größe dieser Hemmhöfe, wiedergegeben in Tabelle 1, ist bei vergleichbarer Substanzkonzentration ein Maß für die antimycotische Wirksamkeit der Testverbindungen.
On the technique in general: In agar diffusion tests the substance spreads into inoculated agar from a disc or well.

Setting [1] is: Konz. 0,5 % in Ethanol, 25 ul per 5 mm well, three patient strains, three days at 37 C.
Setting [2] is: Konz. 1,0 % in Ethanol, 25 ul per 5 mm well, three patient strains, three days at 37 C.
Where [3] appears, read: Konz. 5,0 % in Ethanol, 25 ul per 5 mm well, three patient strains, three days at 37 C.
Setting [4] is: Konz. 10,0 % in Ethanol, 25 ul per 5 mm well, three patient strains, three days at 37 C.

Take `CCCCCCCCCCCC(=O)OCCCCCC` [Testlösung 1, Hexyllaurat]: the zone of inhibition at 0.5 % under setting [1] amounted to 14 mm. The zone of inhibition at 1 % under setting [2] worked out at 15.5 mm. Further, the zone of inhibition at 5 % under setting [3] came to 18 mm. Besides, the zone of inhibition at 10 % under setting [4] amounted to 20.7 mm.

`CCCCCCCCCCCCCCCCCC(=O)OC(C)C` [Testlösung 2, Isopropylstearat]: the zone of inhibition at 0.5 % under setting [1] turned out to be 10.7 mm. Moreover, under setting [2], the zone of inhibition at 1 % stood at 14 mm. Also, the zone of inhibition at 5 % under setting [3] worked out at 18.7 mm. Further, under setting [4], the zone of inhibition at 10 % worked out at 20.7 mm.

Turning to `CCCCCCCCCCCC(=O)OCC(O)CO` (stereo not shown) [Testlösung 4, Glyceryllaurat], the zone of inhibition at 0.5 % is 11 mm, the zone of inhibition at 1 % came out at 14 mm, the zone of inhibition at 5 % came out at 16.5 mm and the zone of inhibition at 10 % worked out at 16.5 mm.

For “Caprylsäure-/Caprinsäure-Triglycerid [Testlösung 3]”, the “mittlerer Hemmhof-Durchmesser” value was 9,0 mm under setting [1], 9,0 mm under setting [2], 15,0 mm under setting [3] and 17,3 mm under setting [4].

Source of the values: patent publication EP0596284A2, “Antimycotic cosmetic and dermatological compositions containing fatty acid esters” (Beiersdorf Aktiengesellschaft, priority 1992, dated 1994).
